Assay results taken from patent US11814367B2, “Inhibitors of glycogen synthase 1 (GYS1) and methods of use thereof” (Maze Therapeutics, Inc., priority 2021, dated 2023).

Assays:
[1] = target: hGYS2 enzyme (recombinant hGYS2/GN1 protein) (Homo sapiens (Human), UniProt P54840); test: GYS2 coupled enzyme assay (PK/LDH); assay type: biochemical; settings: geometric mean of at least 2 assay runs on separate days, read-out: Avg_IC50
Summary of the method: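 Read-out: NADH loss at 340 nm, read each minute for 10 min, slope normalized to controls, duplicate % inhibition fit to Hill (0–100). Enzyme: 200 nM hGYS2/GN1; substrate 2 mM UDP-glucose plus 0.2% glycogen and 2 mM G6P; pH 7.5 Tris, 2.5% DMSO.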

[2] = system: hGYS1 enzyme / glycogen synthesis in HeLa cells; test: GYS1 cell based assay (glycogen synthesis, Glucose-glo); parameters: species or system human; settings: Homo sapiens, HeLa, 24 h, 24 h incubation, 20 mM glucose, geometric mean of at least 2 runs
Summary of the method: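 HeLa cells starved 24 h in medium containing only 1× Glutamax were plated onto compound in medium with 20 mM glucose (1% DMSO final) for 24 h, 37 °C, 5% CO2. Acid lysates were Tris-quenched, glucoamylase-digested (pH 5.3, 1 h, 37 °C) and read by Glucose-glo luminescence. IC50 came from Hill fits, as geometric mean of ≥2 runs.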

[3] = target: hGYS1 enzyme (recombinant hGYS1/GN1 protein) (Homo sapiens (Human), UniProt P13807); test: GYS1 coupled enzyme assay (PK/LDH); assay type: biochemical; settings: hGYS1/GN1 50 nM, UDP-Glucose 0.8 mM, G6P 1 mM; geometric mean of at least 2 runs
Chain of hGYS1 enzyme (recombinant hGYS1/GN1 protein) (P13807 whole entry): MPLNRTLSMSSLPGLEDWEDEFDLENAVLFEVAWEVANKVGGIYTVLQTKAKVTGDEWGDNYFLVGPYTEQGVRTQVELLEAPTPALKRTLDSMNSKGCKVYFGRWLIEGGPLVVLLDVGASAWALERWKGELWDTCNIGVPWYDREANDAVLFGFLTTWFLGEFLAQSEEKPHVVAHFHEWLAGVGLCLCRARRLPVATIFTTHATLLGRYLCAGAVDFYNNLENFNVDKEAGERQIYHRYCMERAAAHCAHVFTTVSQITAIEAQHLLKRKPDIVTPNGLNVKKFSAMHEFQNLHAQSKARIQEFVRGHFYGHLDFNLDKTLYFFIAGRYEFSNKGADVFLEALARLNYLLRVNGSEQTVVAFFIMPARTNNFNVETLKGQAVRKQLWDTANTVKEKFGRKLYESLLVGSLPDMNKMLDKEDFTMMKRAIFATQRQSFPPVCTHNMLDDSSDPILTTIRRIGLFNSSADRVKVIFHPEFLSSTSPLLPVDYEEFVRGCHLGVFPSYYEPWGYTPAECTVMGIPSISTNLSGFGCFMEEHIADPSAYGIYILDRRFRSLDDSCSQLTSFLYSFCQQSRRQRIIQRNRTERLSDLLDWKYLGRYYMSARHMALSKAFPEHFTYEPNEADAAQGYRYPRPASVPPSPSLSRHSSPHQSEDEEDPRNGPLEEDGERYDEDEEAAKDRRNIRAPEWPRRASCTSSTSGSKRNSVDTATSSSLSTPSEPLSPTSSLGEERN
Chain of hGYS1 enzyme (recombinant hGYS1/GN1 protein) (P46976 whole entry partner): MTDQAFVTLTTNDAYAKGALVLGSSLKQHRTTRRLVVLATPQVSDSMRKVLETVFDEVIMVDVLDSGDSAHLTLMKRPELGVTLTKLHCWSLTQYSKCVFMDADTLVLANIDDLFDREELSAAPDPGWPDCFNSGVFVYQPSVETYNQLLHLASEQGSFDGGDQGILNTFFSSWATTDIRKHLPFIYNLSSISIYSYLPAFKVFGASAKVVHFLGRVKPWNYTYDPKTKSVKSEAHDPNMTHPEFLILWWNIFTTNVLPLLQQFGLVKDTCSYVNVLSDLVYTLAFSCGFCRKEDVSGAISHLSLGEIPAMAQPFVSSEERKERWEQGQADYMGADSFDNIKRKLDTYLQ

Chain of hGYS2 enzyme (recombinant hGYS2/GN1 protein) (P54840 whole entry): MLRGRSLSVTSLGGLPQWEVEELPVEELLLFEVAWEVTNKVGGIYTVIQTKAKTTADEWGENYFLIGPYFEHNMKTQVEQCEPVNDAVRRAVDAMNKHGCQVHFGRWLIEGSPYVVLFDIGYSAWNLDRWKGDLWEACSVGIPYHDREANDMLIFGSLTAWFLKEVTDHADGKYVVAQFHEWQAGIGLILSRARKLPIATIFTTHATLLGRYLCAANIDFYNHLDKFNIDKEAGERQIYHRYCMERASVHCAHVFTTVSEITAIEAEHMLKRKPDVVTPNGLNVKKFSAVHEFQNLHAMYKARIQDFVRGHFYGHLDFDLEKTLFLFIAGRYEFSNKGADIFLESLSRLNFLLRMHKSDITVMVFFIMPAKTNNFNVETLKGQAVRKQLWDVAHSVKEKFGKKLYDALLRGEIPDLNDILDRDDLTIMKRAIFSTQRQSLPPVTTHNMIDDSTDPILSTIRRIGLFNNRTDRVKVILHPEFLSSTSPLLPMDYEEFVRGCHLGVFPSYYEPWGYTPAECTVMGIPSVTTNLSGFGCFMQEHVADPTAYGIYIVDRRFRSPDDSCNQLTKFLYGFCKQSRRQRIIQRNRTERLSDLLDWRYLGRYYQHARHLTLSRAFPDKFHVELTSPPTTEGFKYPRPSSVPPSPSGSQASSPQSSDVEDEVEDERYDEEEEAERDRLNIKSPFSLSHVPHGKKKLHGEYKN
Chain of hGYS2 enzyme (recombinant hGYS2/GN1 protein) (P46976 whole entry partner): as the sequence (P46976 whole entry partner) above

IC50 [1]	IC50 [2]	IC50 [3]	Structure (SMILES)
> 100000 nM	2250 nM	86 nM	CC(=O)NCc1cnnn1CC(=O)N1C[C@H](F)C[C@H]1C(=O)N[C@@H](c1ccccc1)c1ccc(C(C)C)cc1 [Compound 243, (2S,4R)-1-{2-[5-(acetamidomethyl)-1H-1,2,3-triazol-1-yl]acetyl}-4-fluoro-N-[(S)-phenyl[4-(propan-2-yl)phenyl]methyl]pyrrolidine-2-carboxamide]
> 100000 nM	500 nM	10 nM	O=C(N[C@@H](c1ccccc1)c1ccc(C2CC2)c(F)n1)[C@@H]1C[C@@H](F)CN1C(=O)Cc1[nH]nnc1C(F)(F)F [Compound 307, (2S,4R)-N-[(S)-(5-cyclopropyl-6-fluoropyridin-2-yl)(phenyl)methyl]-4-fluoro-1-{2-[4-(trifluoromethyl)-1H-1,2,3-triazol-5-yl]acetyl}pyrrolidine-2-carboxamide]
> 100000 nM	1120 nM	79 nM	Cc1ccc2cc(CC(=O)N3C[C@H](F)C[C@H]3C(=O)N[C@@H](c3ccccc3)c3ccc(C4CC4)c(F)c3)ccc2n1 [Compound 480, (2S,4R)-N-[(S)-(4-cyclopropyl-3-fluorophenyl)(phenyl)methyl]-4-fluoro-1-[2-(2-methylquinolin-6-yl)acetyl]pyrrolidine-2-carboxamide]
> 100000 nM	220 nM	14 nM	O=C(N[C@@H](c1ccccc1)c1ccc(C2CC(F)(F)C2)c(F)n1)[C@@H]1C[C@@H](F)CN1C(=O)Cn1nnnc1C(F)F [Compound 513, (2S,4R)-N-[(S)-[5-(3,3-difluorocyclobutyl)-6-fluoropyridin-2-yl](phenyl)methyl]-1-{2-[5-(difluoromethyl)-1H-1,2,3,4-tetrazol-1-yl]acetyl}-4-fluoropyrrolidine-2-carboxamide]
> 100000 nM	1090 nM	67 nM	CC(C)c1ccc([C@@H](NC(=O)[C@@H]2C[C@@H](F)CN2C(=O)Cc2nnc(C(F)F)o2)c2ccccc2)nc1 [Compound 253, (2S,4R)-1-{2-[5-(difluoromethyl)-1,3,4-oxadiazol-2-yl]acetyl}-4-flouro-N-[(S)-phenyl[5-(propan-2-yl)pyridin-2-yl]methyl]pyrrolidine-2-carboxamide]
> 100000 nM	120 nM	7 nM	CC(C)c1ccc([C@@H](NC(=O)[C@@H]2C[C@@H](F)CN2C(=O)Cn2ncc(N3CCC3)n2)c2ccccc2)nc1F [Compound 412, (2S,4R)-1-{2-[4-(azetidin-1-yl)-2H-1,2,3-triazol-2-yl]acetyl}-4-fluoro-N-[(S)-[6-fluoro-5-(propan-2-yl)pyridin-2-yl](phenyl)methyl] pyrrolidine-2-carboxamide]
> 100000 nM	270 nM	25 nM	Cc1nnc(CC(=O)N2C[C@H](F)C[C@H]2C(=O)N[C@@H](c2ccccc2)c2ccc(C(C)C)c(F)c2)o1 [Compound 332, (2S,4R)-4-fluoro-N-[(S)-[3-fluoro-4-(propan-2-yl)phenyl](phenyl)methyl]-1-[2-(5-methyl-1,3,4-oxadiazol-2-yl)acetyl]pyrrolidine-2-carboxamide]
> 100000 nM	240 nM	11 nM	CCn1cccc(CC(=O)N2C[C@H](F)C[C@H]2C(=O)N[C@@H](c2ccccc2)c2ccc(C(C)C)c(F)n2)c1=O [Compound 795, (2S,4R)-1-[2-(1-ethyl-2-oxo-1,2-dihydropyridin-3-yl)acetyl]-4-fluoro-N-[(S)-[6-fluoro-5-(propan-2-yl)pyridin-2-yl](phenyl)methyl] pyrrolidine-2-carboxamide]
> 100000 nM	1420 nM	101 nM	CC1(c2ccc([C@@H](NC(=O)[C@@H]3C[C@@H](F)CN3C(=O)CNC(=O)N3CCOCC3)c3ccccc3)nc2F)CC1 [Compound 589, N-{2-[(2S,4R)-4-fluoro-2-{[(S)-[6-fluoro-5-(1-methylcyclopropyl)pyridin-2-yl](phenyl)methyl]carbamoyl}pyrrolidin-1-yl]-2-oxoethyl} morpholine-4-carboxamide]
> 100000 nM	2090 nM	68 nM	O=C(N[C@@H](c1ccccc1)c1ccc(C2CC2)c(F)c1)[C@@H]1C[C@@H](F)CN1C(=O)CNC(=O)N1CCN(CC(F)(F)F)CC1 [Compound 487, N-{2-[(2S,4R)-2-{[(S)-(4-cyclopropyl-3-fluorophenyl)(phenyl)methyl]carbamoyl}-4-fluoropyrrolidin-1-yl]-2-oxoethyl}-4-(2,2,2-trifluoroethyl) piperazine-1-carboxamide]
> 100000 nM	1790 nM	149 nM	CC(C)c1ccc([C@@H](NC(=O)[C@@H]2C[C@@H](F)CN2C(=O)[C@H](C)NC(=O)N(C)C)c2ccccc2)nc1 [Compound 273, (2S,4R)-1-[(2S)-2-[(dimethylcarbamoyl)amino]propanoyl]-4-fluoro-N-[(S)-phenyl[5-(propan-2-yl)pyridin-2-yl]methyl]pyrrolidine-2-carboxamide]
> 100000 nM	370 nM	34 nM	CC(C)c1ccc([C@@H](NC(=O)[C@@H]2C[C@@H](F)CN2C(=O)Cc2ccnnc2)c2ccccc2)cc1F [Compound 342, (2S,4R)-4-fluoro-N-[(S)-[3-fluoro-4-(propan-2-yl)phenyl](phenyl)methyl]-1-[2-(pyridazin-4-yl)acetyl]pyrrolidine-2-carboxamide]
> 100000 nM	190 nM	11 nM	CC(C)c1ccc([C@@H](NC(=O)[C@@H]2C[C@@H](F)CN2C(=O)Cc2ccc3ncnn3c2)c2ccccc2)cc1F [Compound 358, (2S,4R)-4-fluoro-N-[(S)-[3-fluoro-4-(propan-2-yl)phenyl](phenyl)methyl]-1-(2-{[1,2,4]triazolo[1,5-a]pyridin-6-yl}acetyl)pyrrolidine-2-carboxamide]
> 100000 nM	1660 nM	178 nM	CC1(c2ccc([C@@H](NC(=O)[C@@H]3C[C@@H](F)CN3C(=O)CN3Cc4ccccc4C3=O)c3ccccc3)cc2F)CC1 [Compound 573, (2S,4R)-4-fluoro-N-[(S)-[3-fluoro-4-(1-methylcyclopropyl)phenyl](phenyl)methyl]-1-[2-(1-oxo-2,3-dihydro-1H-isoindol-2-yl)acetyl]pyrrolidine-2-carboxamide]
> 100000 nM	2220 nM	254 nM	Cn1c(CC(=O)N2C[C@H](F)C[C@H]2C(=O)N[C@@H](c2ccccc2)c2ccc(C3CC3)c(F)n2)noc1=O [Compound 719, (2S,4R)-N-[(S)-(5-cyclopropyl-6-fluoropyridin-2-yl)(phenyl)methyl]-4-fluoro-1-[2-(4-methyl-5-oxo-4,5-dihydro-1,2,4-oxadiazol-3-yl)acetyl]pyrrolidine-2-carboxamide]
> 100000 nM	6040 nM	547 nM	O=C(N[C@@H](c1ccccc1)c1ccc(C2CC2)c(F)c1)[C@@H]1C[C@@H](F)CN1C(=O)CN1CCNCC1=O [Compound 465, (2S,4R)-N-[(S)-(4-cyclopropyl-3-fluorophenyl)(phenyl)methyl]-4-fluoro-1-[2-(2-oxopiperazin-1-yl)acetyl]pyrrolidine-2-carboxamide]
> 100000 nM	780 nM	63 nM	Cn1cc(CC(=O)N2C[C@H](F)C[C@H]2C(=O)N[C@@H](c2ccccc2)c2ccc(C3(C)CC3)c(F)c2)c2ccccc21 [Compound 563, (2S,4R)-4-fluoro-N-[(S)-[3-fluoro-4-(1-methylcyclopropyl)phenyl](phenyl)methyl]-1-[2-(1-methyl-1H-indol-3-yl)acetyl]pyrrolidine-2-carboxamide]
> 100000 nM	830 nM	18 nM	CC(C)c1ccc([C@@H](NC(=O)[C@@H]2C[C@@H](F)CN2C(=O)Cc2[nH]nnc2C(F)(F)F)c2ccccc2)nc1 [Compound 268, (2S,4R)-4-fluoro-N-[(S)-phenyl[5-(propan-2-yl)pyridin-2-yl]methyl]-1-{2-[4-(trifluoromethyl)-1H-1,2,3-triazol-5-yl]acetyl}pyrrolidine-2-carboxamide]
> 100000 nM	1450 nM	85 nM	Cn1nc(CC(=O)N2C[C@H](F)C[C@H]2C(=O)N[C@@H](c2ccccc2)c2ccc(C3CC3)c(F)n2)n(C)c1=O [Compound 722, (2S,4R)-N-[(S)-(5-cyclopropyl-6-fluoropyridin-2-yl)(phenyl)methyl]-1-[2-(1,4-dimethyl-5-oxo-4,5-dihydro-1H-1,2,4-triazol-3-yl)acetyl]-4-fluoropyrrolidine-2-carboxamide]
> 100000 nM	720 nM	49 nM	CN(C)c1cnn(CC(=O)N2C[C@H](F)C[C@H]2C(=O)N[C@@H](c2ccccc2)c2ccc(C3CC3)c(F)c2)n1 [Compound 483, (2S,4R)-N-[(S)-(4-cyclopropyl-3-fluorophenyl)(phenyl)methyl]-1-{2-[4-(dimethylamino)-2H-1,2,3-triazol-2-yl]acetyl}-4-fluoropyrrolidine-2-carboxamide]
78700 nM	60 nM	3 nM	CCN(CC)c1cnn(CC(=O)N2C[C@H](F)C[C@H]2C(=O)N[C@@H](c2ccccc2)c2ccc(C(C)C)c(F)n2)n1 [Compound 414]
